IC50 data for 18 compounds are collected here from patent US12187742B2 (XRAD Therapeutics, Inc., priority 2018, dated 2025).

Molecules are shown by their SMILES. Structures can show the parent of a compound that is named as a salt. A value given as a limit tells only on which side of the number the result lay.

One assay has as its target DNA-PK (Homo sapiens (Human), UniProt P78527). Kind of assay: DNA-PK Enzyme-Linked Immunosorbent Assay (phosphorylation of GST-p53 (1-101) peptide). Type of assay: biochemical. The conditions noted are these: ELISA. On the procedure:
Assay of Compounds ATM and DNA-PK Inhibition
remove wash solution, turn plate upside down onto a thin paper towel and centrifuge at 1000 rpm for 1 min to absorb all wash buffer. Clean the bottom of plate with moist lint free paper. Scan plate immediately using ODYSSEY CLx (LI-COR) for the best results. DNA-PK Enzyme-Linked Immunosorbent Assay:
On day one, coat 96-well plate (ThermoFisher. Cat #: 442404) with GST-p53 (1-101) peptide (purified by Pharmaron, BCS department) by diluting 3 μg of GST-p53 each well with 0.1 M Na2CO3/NaHCO3, pH 9.6. Incubate the plate overnight at 4° C. The second day, remove coating buffer, wash 2× with PBST (1×PBS containing 0.1% Tween-20). Then add DNA-PK enzyme solution (Invitrogen, #PR9107A; the final DNA-PK concentration is 0.1 μg/mL), series dilution compounds (the final top concentration is 100 nM, 3 fold series dilution, with total 10 doses) and ATP solution (the final ATP concentration is 20 μM) to the 96-well plate. Incubate the plate at 25° C. for 1 hour. Then wash 3× with PBST (1×PBS containing 0.1% Tween-20). Block the plate with PBST+ 1% BSA at 4° C. overnight. The third day, wash 4× with PBST (1×PBS containing 0.1% Tween-20). Then add Phospho-p53 primary antibody (cell signaling Technology, #9286, Phospho-p53 (Ser15) (16G8) Mouse mAb) (1/1000) to each well. Seal with plate and incubate the plate for 1 h at 37° C. Wash 4× with PBST (1×PBS containing 0.1% Tween-20), add 100 μL of HRP-linked secondary antibody (Cell signaling Technology, #7076, Anti-mouse IgG, HRP-linked Antibody) (1/1000) to each well. Seal with tape and incubate the plate for 30 min at 37° C. Wash 4× with PBST (1×PBS containing 0.1% Tween-20), add 100 μL of TMB (Cell signaling Technology, #7004) substrate to each well. Seal with tape and incubate the plate for 10 min at 37° C. Then add 100 μL of Stop solution (Cell signaling Technology, #7002) to each well. Read the plate at 450 nm to detect absorption.

In the next assay the target is ATM (Homo sapiens (Human), UniProt Q13315). Briefly: ATM in Cell Western Assay (pKAP1 in etoposide-treated MCF-7 cells). Type of assay: cell-based. The method in brief: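 Cells received compounds in a 10-dose, 3-fold series from a 1 μM final top concentration, then 100 μM etoposide, for 1 hr at 37° C. They were then fixed with paraformaldehyde and permeabilized with 0.1% Triton X-100. After immunostaining, plates were scanned on an infrared imager.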

[1] abbreviates: MCF-7 cells, etoposide 100 μM, 1 hr, pKAP1 readout.
Setting [2] is: pKAP1 in etoposide-treated MCF-7 cells.

Sequence of ATM (Q13315 whole entry): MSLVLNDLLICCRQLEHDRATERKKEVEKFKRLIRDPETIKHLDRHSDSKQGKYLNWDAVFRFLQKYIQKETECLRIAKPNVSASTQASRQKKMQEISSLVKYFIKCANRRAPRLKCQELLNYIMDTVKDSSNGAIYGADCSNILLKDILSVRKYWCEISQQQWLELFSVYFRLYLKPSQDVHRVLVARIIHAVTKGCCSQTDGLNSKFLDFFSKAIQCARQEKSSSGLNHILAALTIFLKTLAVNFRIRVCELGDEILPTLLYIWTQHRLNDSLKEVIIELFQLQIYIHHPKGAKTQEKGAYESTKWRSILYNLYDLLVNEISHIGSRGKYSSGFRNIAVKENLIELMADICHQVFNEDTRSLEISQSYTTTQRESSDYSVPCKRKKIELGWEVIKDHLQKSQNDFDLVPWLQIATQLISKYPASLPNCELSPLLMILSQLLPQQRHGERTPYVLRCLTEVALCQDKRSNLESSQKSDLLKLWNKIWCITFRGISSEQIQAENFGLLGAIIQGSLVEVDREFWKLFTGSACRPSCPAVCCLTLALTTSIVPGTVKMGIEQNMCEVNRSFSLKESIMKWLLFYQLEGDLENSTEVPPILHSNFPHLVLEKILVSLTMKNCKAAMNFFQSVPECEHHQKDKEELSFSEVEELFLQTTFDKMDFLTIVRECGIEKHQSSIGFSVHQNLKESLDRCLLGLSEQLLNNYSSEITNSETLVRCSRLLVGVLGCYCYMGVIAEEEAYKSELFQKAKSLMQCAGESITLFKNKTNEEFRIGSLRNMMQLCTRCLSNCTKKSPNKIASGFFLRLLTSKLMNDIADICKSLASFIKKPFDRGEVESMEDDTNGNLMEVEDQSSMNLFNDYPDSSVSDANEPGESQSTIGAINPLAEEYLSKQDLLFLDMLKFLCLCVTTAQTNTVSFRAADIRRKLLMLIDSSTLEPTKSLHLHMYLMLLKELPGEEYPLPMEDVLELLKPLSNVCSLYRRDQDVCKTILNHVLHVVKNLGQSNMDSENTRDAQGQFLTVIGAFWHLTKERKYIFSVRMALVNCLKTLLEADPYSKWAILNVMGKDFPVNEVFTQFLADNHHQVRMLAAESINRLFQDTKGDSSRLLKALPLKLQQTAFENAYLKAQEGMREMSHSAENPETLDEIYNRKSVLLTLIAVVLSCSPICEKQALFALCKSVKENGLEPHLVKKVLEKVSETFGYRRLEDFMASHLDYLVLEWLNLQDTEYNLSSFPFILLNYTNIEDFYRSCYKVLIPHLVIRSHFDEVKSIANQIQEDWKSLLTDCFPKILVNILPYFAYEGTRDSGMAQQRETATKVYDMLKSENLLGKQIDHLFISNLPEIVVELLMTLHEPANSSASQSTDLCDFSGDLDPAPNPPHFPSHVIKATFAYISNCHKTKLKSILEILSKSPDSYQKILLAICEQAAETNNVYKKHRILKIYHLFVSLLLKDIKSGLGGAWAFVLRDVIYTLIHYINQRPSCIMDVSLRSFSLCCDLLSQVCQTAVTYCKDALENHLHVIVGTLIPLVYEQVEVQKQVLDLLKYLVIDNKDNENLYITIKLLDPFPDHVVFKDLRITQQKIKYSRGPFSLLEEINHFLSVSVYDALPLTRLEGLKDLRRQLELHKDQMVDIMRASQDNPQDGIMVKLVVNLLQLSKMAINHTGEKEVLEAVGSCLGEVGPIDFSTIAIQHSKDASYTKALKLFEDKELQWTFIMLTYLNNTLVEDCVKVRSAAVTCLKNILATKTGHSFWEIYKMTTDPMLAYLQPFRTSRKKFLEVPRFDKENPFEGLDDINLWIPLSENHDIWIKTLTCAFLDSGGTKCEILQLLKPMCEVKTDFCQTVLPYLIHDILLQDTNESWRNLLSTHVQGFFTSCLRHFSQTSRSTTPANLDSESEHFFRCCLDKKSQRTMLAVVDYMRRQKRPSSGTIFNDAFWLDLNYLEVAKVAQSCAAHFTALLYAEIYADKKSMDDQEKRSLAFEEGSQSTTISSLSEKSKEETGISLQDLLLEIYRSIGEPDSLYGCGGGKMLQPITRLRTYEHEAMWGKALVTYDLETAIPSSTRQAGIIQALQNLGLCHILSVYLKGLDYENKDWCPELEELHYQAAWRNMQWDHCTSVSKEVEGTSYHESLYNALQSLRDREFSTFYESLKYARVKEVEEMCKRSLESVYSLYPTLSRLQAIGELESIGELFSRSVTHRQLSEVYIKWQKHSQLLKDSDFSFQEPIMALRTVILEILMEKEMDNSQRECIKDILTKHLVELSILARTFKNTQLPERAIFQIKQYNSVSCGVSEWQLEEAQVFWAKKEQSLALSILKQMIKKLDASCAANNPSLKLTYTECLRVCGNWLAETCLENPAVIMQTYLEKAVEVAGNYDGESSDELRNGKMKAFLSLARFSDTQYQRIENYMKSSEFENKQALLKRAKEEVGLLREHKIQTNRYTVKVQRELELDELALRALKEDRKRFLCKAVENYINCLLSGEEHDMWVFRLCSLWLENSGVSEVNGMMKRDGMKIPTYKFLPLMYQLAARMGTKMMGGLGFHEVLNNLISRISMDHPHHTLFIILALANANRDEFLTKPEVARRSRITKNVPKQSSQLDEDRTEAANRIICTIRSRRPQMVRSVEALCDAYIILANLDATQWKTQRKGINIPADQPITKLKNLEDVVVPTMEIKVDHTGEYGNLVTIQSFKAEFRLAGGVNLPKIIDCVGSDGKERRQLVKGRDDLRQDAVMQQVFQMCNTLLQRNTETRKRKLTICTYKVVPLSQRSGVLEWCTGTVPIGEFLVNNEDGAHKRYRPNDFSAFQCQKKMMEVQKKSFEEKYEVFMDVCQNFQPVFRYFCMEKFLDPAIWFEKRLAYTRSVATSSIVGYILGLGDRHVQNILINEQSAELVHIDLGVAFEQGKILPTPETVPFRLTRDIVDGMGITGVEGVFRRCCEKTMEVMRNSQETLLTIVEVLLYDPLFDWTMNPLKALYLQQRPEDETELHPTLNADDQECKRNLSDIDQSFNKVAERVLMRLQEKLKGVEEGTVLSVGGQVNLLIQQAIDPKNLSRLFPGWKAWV

As for `Cc1cc(S(=O)(=O)Nc2cc(-c3ccc4ncc5c(c4c3)C3(CCC3)C(=O)N5C)cnc2N2CCC(N(C)C)CC2)sn1` [Example 233, N-(2-(4-(Dimethylamino)piperidin-1-yl)-5-(3′-methyl-2′-oxo-2′,3′-dihydrospiro[cyclobutane-1,1′-pyrrolo[2,3-c]quinolin]-8′-yl)pyridin-3-yl)-3-methylisothiazole-5-sulfonamide], the concentration for half-maximal inhibition (IC50) (as a rule, the concentration that gives 50% inhibition) on DNA-PK (ATP 20 μM) lay in the range of 0.5 to 1 nM; on ATM (setting [1]), 1 to 100 nM.
Taken in the same sequence, the figures for `CN(C)CCCOc1ccc(-c2ccc3ncc4c(c3c2)C2(CC2)C(=O)N4C)cc1NS(=O)(=O)c1cccc(Cl)c1` [Example 98, 3-Chloro-N-(2-(3-(dimethylamino)propoxy)-5-(3′-methyl-2′-oxo-2′,3′-dihydrospiro[cyclopropane-1,1′-pyrrolo[2,3-c]quinolin]-8′-yl)phenyl) benzenesulfonamide] were 1 to 100 nM and 1 to 100 nM.
Taken in the same sequence, the figures for `Cc1ncc(-c2ccc3ncc4c(c3c2)C2(CC2)C(=O)N4C)cc1NS(=O)(=O)c1ccccc1` [Example 24, N-(2-Methyl-5-(3′-methyl-2′-oxo-2′,3′-dihydrospiro[cyclopropane-1,1′-pyrrolo[2,3-c]quinolin]-8′-yl)pyridin-3-yl)benzenesulfonamide] were < 0.5 nM and 1 to 100 nM.
For the compound `Cc1ccc(S(=O)(=O)Nc2cc(-c3ccc4ncc5c(c4c3)C3(CCC3)C(=O)N5C)cnc2N2CCN(C)CC2)cn1` [Example 201, 6-Methyl-N-(5-(3′-methyl-2′-oxo-2′,3′-dihydrospiro[cyclobutane-1,1′-pyrrolo[2,3-c]quinolin]-8′-yl)-2-(4-methylpiperazin-1-yl)pyridin-3-yl)pyridine-3-sulfonamide], the IC50 at DNA-PK (ATP 20 μM) is < 0.5 nM; against ATM (setting [1]), 1 to 100 nM.
Turning to `Cc1ncc(S(=O)(=O)Nc2cc(-c3ccc4ncc5c(c4c3)C3(CCC3)C(=O)N5C)cnc2N2CC(N(C)C)C2)s1` [Example 338, N-(2-(3-(Dimethylamino)azetidin-1-yl)-5-(3′-methyl-2′-oxo-2′,3′-dihydrospiro[cyclobutane-1,1′-pyrrolo[2,3-c]quinolin]-8′-yl)pyridin-3-yl)-2-methylthiazole-5-sulfonamide], the IC50 at DNA-PK (20 μM ATP) and against ATM (setting [2]) was 1 to 100 nM each time.
With `CC(C)NCCOc1ncc(-c2cc3c4c(cnc3cc2F)N(C)C(=O)C42CCC2)cc1NS(=O)(=O)C(C)(C)C` [Example 366, N-(5-(7′-Fluoro-3′-methyl-2′-oxo-2′,3′-dihydrospiro[cyclobutane-1,1′-pyrrolo[2,3-c]quinolin]-8′-yl)-2-(2-(isopropylamino)ethoxy)pyridin-3-yl)-2-methylpropane-2-sulfonamide], the results for the IC50 on DNA-PK (20 μM ATP) and against ATM (setting [2]) were 0.5 to 1 nM and 1 to 100 nM, respectively.
In the case of `CN(C)CCCOc1ncc(-c2ccc3ncc4c(c3c2)C2(CCC2)C(=O)N4C)cc1NS(=O)(=O)c1ccccc1` [Example 5, N-(2-(3-(Dimethylamino)propoxy)-5-(3′-methyl-2′-oxo-2′,3′-dihydrospiro [cyclobutane-1,1′-pyrrolo [2,3-c]quinolin]-8′-yl)pyridin-3-yl)benzenesulfonamide], the IC50 against DNA-PK (ATP 20 μM) was < 0.5 nM; at ATM (setting [1]), 1 to 100 nM.
As for `CC(C)NCCOc1ncc(-c2cc3c(cc2F)ncc2c3[C@]3(C[C@H](Oc4ccccc4)C3)C(=O)N2C)cc1NS(=O)(=O)N(C)C` [Example 402, cis-8′-{5-[(Dimethylsulfamoyl)amino]-6-{2-[(propan-2-ylamino]ethoxy}pyridine-3-yl}-7′-fluoro-3′-methyl-3-phenoxy-2′,3′-dihydrospiro[cyclobutane-1,1′-pyrrolo[2,3-c]quinoline]-2′-one hydrochloride], the IC50 at DNA-PK (20 μM ATP) and against ATM (setting [2]) was 1 to 100 nM in each case.
In the case of `COc1cc2ncc3c(c2cc1-c1cnc(OCCCN(C)C)c(NS(=O)(=O)c2ccccc2)c1)C1(CC1)C(=O)N3C` [Example 82, N-(2-(3-(Dimethylamino)propoxy)-5-(7-methoxy-3′-methyl-2′-oxo-2′,3′-dihydrospiro[cyclopropane-1,1′-pyrrolo[2,3-c]quinolin]-8′-yl)pyridin-3-yl) benzenesulfonamide], the half-inhibitory concentration (IC50) was in the range of 1 to 100 nM at DNA-PK (ATP 20 μM) and 0.5 to 1 nM on ATM (setting [1]).
Regarding `CN(C)CCCOc1ncc(-c2ccc3ncc4c(c3c2)C2(CCC2)C(=O)N4C)cc1NS(=O)(=O)N1CCCC1` [Example 244, N-(2-(3-(Dimethylamino)propoxy)-5-(3′-methyl-2′-oxo-2′,3′-dihydrospiro [cyclobutane-1,1′-pyrrolo[2,3-c]quinolin]-8′-yl)pyridin-3-yl)pyrrolidine-1-sulfonamide], the IC50 at DNA-PK (ATP 20 μM) and against ATM (setting [1]) was 1 to 100 nM in each case.
As to `COCCN(C)CCCOc1ncc(-c2cc3c4c(cnc3cc2F)N(C)C(=O)C42CCC2)cc1NS(=O)(=O)N1CCOCC1` [Example 294, N-(5-(7′-Fluoro-3′-methyl-2′-oxo-2′,3′-dihydrospiro[cyclobutane-1,1′-pyrrolo[2,3-c]quinolin]-8′-yl)-2-(3-((2-methoxyethyl)(methyl)amino)propoxy)pyridin-3-yl)morpholine-4-sulfonamide], the IC50 on DNA-PK (ATP 20 μM) and against ATM (setting [1]) was 1 to 100 nM each time.
For `CN1C(=O)C2(CCC2)c2c1cnc1ccc(-c3cnc(OCCCN4CCOCC4)c(NS(C)(=O)=O)c3)cc21` [Example 305, N-(5-(3′-Methyl-2′-oxo-2′,3′-dihydrospiro[cyclobutane-1,1′-pyrrolo[2,3-c]quinolin]-8′-yl)-2-(3-morpholinopropoxy)pyridin-3-yl)methanesulfonamide], the IC50 at DNA-PK (ATP 20 μM) and against ATM (setting [1]) was 1 to 100 nM in each case.
`CN(C)CCCOc1ncc(-c2ccc3ncc4c(c3c2)C2(CCC2)C(=O)N4C)cc1NS(=O)(=O)c1ccc(C#N)nc1` [Example 147, 6-Cyano-N-(2-(3-(dimethylamino)propoxy)-5-(3′-methyl-2′-oxo-2′,3′-dihydrospiro[cyclobulane-1,1′-pyrrolo[2,3-c]quinolin]-8′-yl)pyridin-3-ylpyridine-3-sulfonamide hydrochloride]: the IC50 was in the range of 0.5 to 1 nM against DNA-PK (ATP 20 μM) and 1 to 100 nM against ATM (setting [1]).
Taken in the same sequence, the figures for `CCN(C)S(=O)(=O)Nc1cc(-c2ccc3ncc4c(c3c2)C2(CCC2)C(=O)N4C)cnc1N1CCC(N2CCCCC2)CC1` [Example 212, 8′-(6-{[1,4′-Bipiperidine]-1′-yl}-5-[(ethyl(methyl)sulfamoyl)amino}pyridin-3-yl)-3′-methyl-2′,3′-dihydrospiro[cyclobutane-1,1′-pyrrolo[2,3-c]quinoline]-2′-one] were 1 to 100 nM and 1 to 100 nM.
Take `CN(C)CCCOc1ncc(-c2ccc3ncc4c(c3c2)[C@]2(C[C@@H](O)C2)C(=O)N4C)cc1NS(C)(=O)=O` [Example 383, trans-N-(2-(3-(Dimethylamino)propoxy)-5-(3-hydroxy-3′-methyl-2′-oxo-2′,3′-dihydrospiro[cyclobutane-1,1′-pyrrolo[2,3-c]quinolin]-8′-yl)pyridin-3-yl)methanesulfonamide]: the IC50 against DNA-PK (20 μM ATP) and against ATM (setting [2]) was 1 to 100 nM each time.
Take `CO[C@H]1C[C@@]2(C1)C(=O)N(C)c1cnc3cc(F)c(-c4cnc(N5CCC(N6CCCCC6)CC5)c(NS(C)(=O)=O)c4)cc3c12` [Example 392]: the IC50 against DNA-PK (20 μM ATP) and against ATM (setting [2]) was 1 to 100 nM throughout.
Take `CN(C)CCCOc1ncc(-c2ccc3ncc4c(c3c2)C2(CCC2)C(=O)N4C)cc1NS(=O)(=O)C(F)(F)F` [Example 239, N-(2-(3-(Dimethylamino)propoxy)-5-(3′-methyl-2′-oxo-2′,3′-dihydrospiro [cyclobutane-1,1′-pyrrolo[2,3-c]quinolin]-8′-yl)pyridin-3-yl)-1,1,1-trifluoromethane-sulfonamide]: the values for the 50% inhibitory concentration (IC50) against DNA-PK (ATP 20 μM) and against ATM (setting [1]) were < 0.5 nM and 1 to 100 nM, respectively.
Turning to `CN(C)CCCOc1ncc(-c2ccc3ncc4c(c3c2)C2(CC(F)C2)C(=O)N4C)cc1NS(C)(=O)=O` (stereo not drawn) [Example 262, N-(2-(3-(Dimethylamino)propoxy)-5-(3-fluoro-3′-methyl-2′-oxo-2′,3′-dihydrospiro[cyclobutane-1,1′-pyrrolo[2,3-c]quinolin]-8′-yl)pyridin-3-yl)methanesulfonamide], the IC50 against DNA-PK (ATP 20 μM) and against ATM (setting [1]) was 1 to 100 nM in each case.
